These results are taken from US7098372B1, “Pharmaceutical compositions and methods of using secreted frizzled related protein” (Wyeth, priority 1999, dated 2006).

One series deals with T1, human SARP-2 (Homo sapiens, UniProt Q8N474).
T1 construct: endogenous in cells; host or cells: hOB-03-C5 and hOB-03-CE6 human osteoblast cell lines treated with PGE2
T1 sequence (Q8N474 32-314): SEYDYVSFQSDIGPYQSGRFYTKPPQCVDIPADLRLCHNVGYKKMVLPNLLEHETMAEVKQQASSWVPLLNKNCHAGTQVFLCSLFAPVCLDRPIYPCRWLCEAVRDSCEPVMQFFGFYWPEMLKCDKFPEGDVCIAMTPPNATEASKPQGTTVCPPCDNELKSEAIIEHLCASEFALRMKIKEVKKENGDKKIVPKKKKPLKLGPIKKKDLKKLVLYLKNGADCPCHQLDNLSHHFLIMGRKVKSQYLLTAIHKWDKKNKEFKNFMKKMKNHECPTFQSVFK
Put plainly: Reversal of PGE2-accelerated hOB cell death, Coulter cell counter. The series is classed as cell-based. Particulars: co-treatment with PGE2, hOB-03-C5 and hOB-03-CE6 cells. Here is the method: These experiments were performed in a similar manner to the ones depicted in FIG. 10. However, for these experiments, the cells were co-treated with either vehicle control (i.e., 0.1% ethanol) or PGE2 in the absence or presence of sense (control) or antisense initiation-site directed phosphorothioate oligonucleotides to human SARP-2. The results are presented as either the % relative to the day 0 control (i.e., ˜200,000 cells per well of a 6 well plate) or as the % relative to the vehicle treated control. The results of this experiment indicate that co-treatment of the hOB cells with the antisense oligonucleotide to SARP-2 reverses the ability of PGE2 to accelerate the rate of cell death, while co-treatment with the sense (control) oligonucleotide as no effect on this process.
These experiments were performed in a similar manner to the ones depicted in FIG. 10. However, for these experiments, the cells were co-treated with either vehicle control (i.e., 0.1% ethanol) or PGE2 in the absence or presence of sense (control) or antisense initiation-site directed phosphorothioate oligonucleotides to human SARP-2. The results are presented as either the % relative to the day 0 control (i.e., ˜200,000 cells per well of a 6 well plate) or as the % relative to the vehicle treated control. […]

In a further series the test system is hOB SFRP mRNA. Put plainly: hOB SFRP mRNA levels after treatment with various agents (method not given). The series is classed as cell-based, human. As to conditions: for effect on hOB SFRP mRNA levels: hOB-03-C5 cells or hOB-03-CE6 cells; for effect on hOB SFRP message expression: various hOB cell lines.
In series [1] the test system is hOB-01-C1-PS-09 cells. Description: Alkaline phosphatase activity in hOB-01-C1-PS-09 cells. The series is classed as cell-based, human. The text has this:
(§1) Unlike the parental hOB-01-C1 cell line, the hOB-01-C1-PS-09 cells proliferate 2- to 3-times faster at the permissive temperature with a doubling time of once every 2–3 days (FIG. 22A). However, like the parental cells, the hOB-01-C1-PS-09 cells stop dividing at the non-permissive temperature (FIG. 22A). […] Alkaline phosphatase and osteocalcin are two important markers of the osteocytic lineage.
In addition to vitamin D3 and PTH, the hOB-01-C1-PS-09 cells also respond to additional bone-active agents: for example, glucocorticoids and transforming growth factor (TGF)-β1. Treatment of the cells with the synthetic glucocorticoid, dexamethasone, up-regulates alkaline phosphatase activity approximately 2-fold at 34° C. (FIG. 25), and this effect is once again enhanced when the cells are incubated at 39° C.

For series [2], the system named is hOB-01-C1-PS-09 cells. Put plainly: Osteocalcin secretion from hOB-01-C1-PS-09 cells. The series is classed as cell-based, human.
Text: as §1
However, the secosteroid up-regulates production of this bone-specific matrix protein 11-fold when the cells are incubated at 39° C. It should be noted that the basal levels of alkaline phosphatase expression and osteocalcin secretion by the hOB-01-C1-PS-09 cells are similar to the parental cell line. Thus, both morphologically and biochemically, the hOB-01-C1-PS-09 cells resemble the parental hOB-01-C1 cells and are therefore a reliable in vitro model to study human pre-osteocyte biology.

A further series relates to Wnt signaling. Description: TCF-luciferase reporter gene assay of Wnt signaling. The series is classed as cell-based, human. Particulars: transfected cDNA, hOB-01-C1-PS-09 or hOB-02-C1-PS-02 cells. Here is the method:
SARP-2 or human Frzb-1 expression plasmids downregulates Wnt signaling (when compared to the pcDNA3.1 empty vector control) in the hOB cells as measured by the TCF-luciferase reporter gene assay. This assay is an authentic measurement of Wnt signaling and β-catenin nuclear activity.
In order to determine if the up-regulation of SFRP-1/FRP-1/SARP-2 gene expression results in an antagonism of the Wnt signaling pathway, hOB-03-CE6 cells were treated with PGE2 and the resulting cells probed with β-catenin monoclonal antibody. Overexpression of Wnt proteins in cells up-regulates a signaling protein known as β-catenin (reviewed in Moon et al. 1997 Cell 88: 725–728; Barth et al. 1997 Curr. Opin. Cell Biol. 9: 683–690; and Nusse 1997 Cell 89: 321–323). […] Therefore, hOB-03-CE6 cells were plated and treated with PGE2 as described in Example 1, except that total cellular protein was extracted and a Western blot analysis for β-catenin was performed using a monoclonal antibody to the protein (Transduction Laboratories) as previously described (Bodine et al. 1996 Endocrinology 137: 4592–4604; Melkonyan et al. 1997 Proc. Natl. Acad. Sci. USA 94: 13636–13641). […] Both human and rat SFRP-1/FRP-1/SARP-2, as well as human Frzb-1/FrzB/Fritz, suppressed TCF-luciferase activity in the hOB cells.

For the molecule “5′-GCGCCCGATGCCCATGCC-3′ (phosphorothioate, further chemistry not given here) [antisense oligonucleotide to SARP-2, antisense initiation-site directed phosphorothioate oligonucleotide to human SARP-2]”, the “effect on the ability of PGE2 to accelerate the rate of hOB cell death” value with human SARP-2 is recorded as “reversed”.
With “5′-GGCATGGGCATCGGGCGC-3′ (phosphorothioate, further chemistry not given here) [sense (control) oligonucleotide, sense (control) initiation-site directed phosphorothioate oligonucleotide to human SARP-2]”, the “effect on the ability of PGE2 to accelerate the rate of hOB cell death” value in the series with human SARP-2 is given as “no effect”.
On to `CC1=C(/C=C/C(C)=C\C=C\C(C)=C\C(=O)O)C(C)(C)CCC1` [9-cis-retinoic acid], for which the “effect on hOB SFRP mRNA levels” value with hOB SFRP mRNA is listed as “increases”.
Consider `C[C@]12CC[C@@H]3c4ccc(O)cc4CC[C@H]3[C@@H]1CC[C@@H]2O` [17β-estradiol], for which the “effect on hOB SFRP message expression” value in the series with hOB SFRP mRNA was “suppresses”.
For the molecule `CC1=C(/C=C/C(C)=C/C=C/C(C)=C/C(=O)O)C(C)(C)CCC1` [all-trans-retinoic acid], the “effect on hOB SFRP mRNA levels” value in the series with hOB SFRP mRNA is “increases”.
As to `C[C@@H]1C[C@H]2[C@@H]3CCC4=CC(=O)C=C[C@]4(C)[C@@]3(F)[C@@H](O)C[C@]2(C)[C@@]1(O)C(=O)CO` [dexamethasone], in the series with hOB-01-C1-PS-09 cells [1] (34° C.), the “up-regulation of alkaline phosphatase activity” value was “approximately 2 fold”.
As to `C=C1CC[C@H](O)C/C1=C/C=C1\CCC[C@]2(C)[C@@H]([C@H](C)CCCC(C)C)CC[C@@H]12` [vitamin D3], in the series with hOB-01-C1-PS-09 cells [2] (34° C.), the osteocalcin secretion entry is “unable to induce”. Further, the “up-regulation of osteocalcin production” value in the series on hOB-01-C1-PS-09 cells [2] (39° C.) was found to be 11 fold. Also, in the series with hOB SFRP mRNA, the “effect on hOB SFRP message expression” value is “suppresses”. In addition, the “enhancement of up-regulation of alkaline phosphatase activity at 39° C.” value in the series with hOB-01-C1-PS-09 cells [1] (cells incubated at 39° C.) is on record as “about 4 fold”.
In the case of “insulin-like growth factor (IGF)-I: insulin-like growth factor (IGF)-I”, the “effect on hOB SFRP message expression” value with hOB SFRP mRNA was “suppresses”.
In the case of “interleukin (IL)-1β: interleukin (IL)-1β”, the “effect on hOB SFRP mRNA levels” value in the series with hOB SFRP mRNA is “increases”.

B1: human Frzb-1/FrzB/Fritz: human Frzb-1 expression plasmid transfected into hOB cells (protein)
chain: AACEPVRIPLCKSLPWNMTKMPNHLHHSTQANAILAIEQFEGLLGTHCSPDLLFFLCAMYAPICTIDFQHEPIKPCKSVCERARQGCEPILIKYRHSWPENLACEELPVYDRGVCISPEAIVTADGADFPMDSSNGNCRGASSERCKCKPIRATQKTYFRNNYNYVIRAKVKEIKTKCHDVTAVVEVKEILKSSLVNIPRDTVNLYTSSGCLCPPLNVNEEYIIMGYEDEERSRLLLVEGSIAEKWKDRLGKKVKRWDMKLRHLGLSKSDSSNSDSTQSQKSGRNSNPRQARN
For B1, in the series with Wnt signaling, the TCF-luciferase activity result was “suppressed”.
